Assay results taken from the NIST ThermoML archive (doi:10.1021/je060419q).

Details: Transpiration method

CC(C)(CO)CO [2,2-dimethyl-1,3-propanediol]
Details | vapor or sublimation pressure [kPa]
283.9 K, Crystal 2 | 0.00029
288.5 K, Crystal 2 | 0.00052
291.2 K, Crystal 2 | 0.00074
295.2 K, Crystal 2 | 0.00119
298.4 K, Crystal 2 | 0.00174
301.7 K, Crystal 2 | 0.00261
304.7 K, Crystal 2 | 0.00367
307.9 K, Crystal 2 | 0.00535
309.4 K, Crystal 2 | 0.00615
311.3 K, Crystal 2 | 0.00735
314.3 K, Crystal 1 | 0.01057
317.3 K, Crystal 1 | 0.01416
320.2 K, Crystal 1 | 0.01849
323.4 K, Crystal 1 | 0.02447
326.4 K, Crystal 1 | 0.03147
329.4 K, Crystal 1 | 0.04056
332.3 K, Crystal 1 | 0.05153
335.3 K, Crystal 1 | 0.06721
338.2 K, Crystal 1 | 0.08442
341.2 K, Crystal 1 | 0.1056
344.2 K, Crystal 1 | 0.1314
347.2 K, Crystal 1 | 0.1654

CC(O)CCO (stereo not drawn) [1,3-butanediol]
Liquid
Details | vapor or sublimation pressure [kPa]
288.3 K | 0.00139
290.3 K | 0.00168
292.9 K | 0.00235
303.5 K | 0.00651
308.3 K | 0.00994
311.3 K | 0.01301
314.3 K | 0.01723
317.3 K | 0.02182
320.3 K | 0.02852
323.3 K | 0.03664
326.3 K | 0.04618
329.3 K | 0.05855
332.3 K | 0.07427

CC(O)CC(C)O (stereo not drawn) [2,4-pentanediol]
Liquid
Details | vapor or sublimation pressure [kPa]
297.2 K | 0.0048
300.2 K | 0.00645
303.2 K | 0.0085
306.2 K | 0.0111
309.2 K | 0.01453
312.2 K | 0.01892
315.3 K | 0.0239
318.4 K | 0.03119
321.4 K | 0.04095
324.4 K | 0.05507
327.5 K | 0.07024
330.5 K | 0.08735
333.4 K | 0.1096
336.5 K | 0.1376
339.2 K | 0.1648
344.4 K | 0.2419
347.3 K | 0.2929

CC(O)CC(C)(C)O (stereo not drawn) [2-methyl-2,4-pentanediol]
Liquid
Details | vapor or sublimation pressure [kPa]
285.2 K | 0.0025
287.9 K | 0.00333
291.2 K | 0.00474
294.2 K | 0.00648
297.2 K | 0.00858
300.2 K | 0.01147
303.2 K | 0.01471
306.5 K | 0.01997
309.4 K | 0.02565
312.5 K | 0.03274
315.2 K | 0.04092
318.2 K | 0.05208
321.2 K | 0.06475
323.3 K | 0.07752
326.3 K | 0.09448
329.4 K | 0.1239

CC(CO)CO [2-methyl-1,3-propanediol]
Liquid
Details | vapor or sublimation pressure [kPa]
297.3 K | 0.00204
300.4 K | 0.00285
303.4 K | 0.00364
306.4 K | 0.0049
309.4 K | 0.00661
312.4 K | 0.00841
312.5 K | 0.00861
314.5 K | 0.00996
316.4 K | 0.01205
318.5 K | 0.0141
319.5 K | 0.01551
321.4 K | 0.01842
322.5 K | 0.01984
323.5 K | 0.02169
323.6 K | 0.02202
326.4 K | 0.02689
326.6 K | 0.02817
328.5 K | 0.03259
328.6 K | 0.03396
331.4 K | 0.04115
333.4 K | 0.0469
336.3 K | 0.05931
338.6 K | 0.07262
341.4 K | 0.08656
342.6 K | 0.09448
343.5 K | 0.1068
347.6 K | 0.1379
349.3 K | 0.1589
352.5 K | 0.1921
355.4 K | 0.2407
357.5 K | 0.2643

OCCCO [propan-1,3-diol]
Liquid
Details | vapor or sublimation pressure [kPa]
293.5 K | 0.00186
303.2 K | 0.00447
309.3 K | 0.00788
312.2 K | 0.00997
315.3 K | 0.01329
318.4 K | 0.01659
321.3 K | 0.02168
324.3 K | 0.02764
327.3 K | 0.03558
330.3 K | 0.04372
333.5 K | 0.05556
336.4 K | 0.06842
339.4 K | 0.08464
342.3 K | 0.1053
